Consider 2 compounds from US20180020667A1, “CHEMICAL COMPOSITIONS THAT PRESENT SYNERGIC EFFECT FOR […] INSECTS IN PERSONAL HYGIENE PRODUCTS, COSMETICS FOR HUMAN USE, IN ANIMALS AND ON INANIMATE SURFACES IN GENERAL” (Universal Chemical Ltda., priority 2016, published 2018).

Assay [1] deals with insects. To be noted: cited from earlier work.
For assay [2], the system named is insects. The experiment in a line: Length of protection against insect bites after application on the skin (conducted tests). Format: in vivo. The text has this: Icaridin and DEET are employed in this synergic mixture as active ingredient.
Setting [3] is: 5% active ingredient in the repellent.
Where [4] appears, read: 10% active ingredient in the repellent.
Where [5] appears, read: 15% active ingredient in the repellent.
[6] abbreviates: 20% active ingredient in the repellent.

Read-outs that look alike come from different tables or passages of the source.

As for `CCC(C)OC(=O)N1CCCCC1CCO` (stereo not drawn) [Icaridin, 1-piperidinecarboxylic acid, 2-(2-hydroxyethyl)-, 1-methylpropyl ester], the “Repellent Capacity Length of Protection” value in the assay with insects [1] (setting [3]) is 1.5 h; in the assay on insects [1] (setting [4]), 4 h; in the assay with insects [1] (setting [5]), 7 h; with insects [1] (setting [6]), 10 h. In addition, the “Length of protection against insect bites” value with insects [1] (concentrations between 20 to 25%) was “up to 10 hours”; with insects [2] (10% concentration in the insect repellent), 4 h; in the assay with insects [2] (20% concentration in the insect repellent) it was 10 h.

For N,N-dimethyl-3-methylbenzamide [DEET], the “Repellent Capacity Length of Protection” value was 1 h in the assay on insects [1] (setting [3]); 2 h in the assay on insects [1] (setting [4]); 4 h in the assay with insects [1] (setting [5]); 6 h with insects [1] (setting [6]); 10 h in the assay with insects [1] (50% active ingredient in the repellent). The “Length of protection against insect bites” value in the assay with insects [1] (concentration of 50%) is 10 h; in the assay with insects [2] (7% concentration in the insect repellent), 2 h; in the assay with insects [2] (50% concentration in the insect repellent), 10 h.
